From US9150553B2, “Carboxamide compounds and their use as calpain inhibitors” (AbbVie Deutschland GmbH & Co. KG, priority 2007, dated 2015)
Several values for one entry are separate records, joined by “and”; a condition that tells them apart may be missing. Equal values may be shown once.

Experiment: In vivo pharmacokinetic profile after oral dosing in rats (plasma, LC-MS)
Design: species or system Sprague-Dawley rats
Settings: plasma prodrug I-2 after oral 10 mg/kg of prodrug example 2, male rats, lines = rat 1, 2, 3 and mean
Experimental: The compound described in example 2 was prepared as a solution (20% EtOH, 40% PEG400, qc. Ampuwa) at a concentration appropriate for a 10 mg/kg (5 mL/kg) oral dose.
Three male Sprague-Dawley rats (200-300 g; Elevage Janvier, France) were used in this study. Due to size, each rat was housed in Macrolon Type 111 cages under conventional barrier conditions. The animals were fasted overnight prior to dosing and throughout the duration of the study but were permitted water ad libitum and were permitted food typically six hours postdosing. Control animals were placed under deep isoflurane anesthia and euthanized by bleeding (cardiac puncture) and their tissues removed and used as blank standards during sample analysis.
The group contained three rats. The group of rats received a 10 mg/kg (5 mL/kg) dose orally by gavage. At the conclusion of the study, rats were euthanized by bleeding (cardiac puncture) under deep isoflurane anesthesia.
Potassium-EDTA blood samples (approx. 200-300 μl) were withdrawn from the tail vein of each animal by butterfly catheter 0.25, 0.5, 1, 1.5, 2, 3, 4, 6, 8 and 24 hours after drug administration. Upon collection, the samples were promptly placed in an ice bath, and within 2 hours after sample collection they were centrifuged at about 4° C. Upon completion of the study, animals were put under deep anesthesia using isoflurane and euthanized by bleeding (cardiac puncture). The resulting plasma samples were placed in clean PP-tubes and stored in a freezer until analysis.
The plasma samples were assayed for the compound I and corresponding drug II using appropriate liquid chromatography mass spectrometry procedures.
Peak plasma concentrations (Cmax) and the time to peak plasma concentration (Tmax) were read directly from the plasma concentration data for each rat. The drug and the prodrug plasma concentration data were submitted to multi-exponential curve fitting using WinNonlin. The area under the plasma concentration-time curve from 0 to t hours (time of the last measurable plasma concentration) after dosing (AUC0-t) was calculated using the linear trapezoidal rule for the plasma concentration-time profiles. The residual area extrapolated to infinity, determined as the final measured plasma concentration (Ct) divided by the terminal elimination rate constant (B), was added to AUC0-t to produce the total area under the curve (AUC0-∞). The apparent total plasma clearance (CLp) was calculated by dividing the administered dose by the AUC0-∞. The initial volume of distribution (Vc) was calculated as the dose divided by the extrapolated concentration at time=0 (C0). […] The bioavailability was calculated as the dose-normalized AUC0∞, from the oral dose divided by the corresponding value derived from an intravenous dose.

[1] = male, Sprague-Dawley, rat, plasma, po, 10 mg/kg

AUC [1]: 1700 ng·h/mL | Tmax [1]: 18 min | prodrug Tmax: 30 min
SMILES: NC(=O)C1(C(Cc2ccccc2)NC(=O)c2cccnc2-n2ccc(-c3cccc(C(F)(F)F)c3)n2)OCCO1 (stereo not shown) [Compound I-2, N-{1-[2-(Aminocarbonyl)-1,3-dioxolan-2-yl]-2-phenylethyl}-2-{3-[3-(trifluoromethyl)phenyl]-1H-pyrazol-1-yl}nicotinamide]
prodrug AUC: 1315 ng·h/mL and 1485 ng·h/mL and 2297 ng·h/mL
